Patent US20230203060A1 (GENFLEET THERAPEUTICS (SHANGHAI) INC., priority 2020, published 2023)
Where a name gives a salt, the structure may show the parent alone.

Experiments:
Type in all cases: cell-based, human
[1] = tested on: KRAS G12C mutant NCI-H358 cells; experiment: Cell proliferation inhibition experiment, 3D spheroid, CellTiter-Glo, NCI-H358; conditions: Homo sapiens, NCI-H358, 120 h, NCI-H358 (KRAS G12C mutant) 3D spheroid, 5 days with compound, CellTiter-Glo; read-out: H358 IC50
How it was run: (§1)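 IC50 values come from four-parameter fits of proliferation inhibition, measured by CellTiter-Glo after 5-day compound exposure. Spheroids of H358 (800 cells) or A549 (400 cells) were formed overnight in 2% FBS medium; DMSO held at 0.1%, doses spaced 3.16-fold.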

[2] = tested on: KRAS G12C mutant MIA PaCa-2 cells; experiment: Cell proliferation inhibition experiment, 3D spheroid, CellTiter-Glo, MIA PaCa-2; conditions: Homo sapiens, MIA PaCa-2, 120 h, 3D cell model in 384-well spheroid plate, 5 days, CellTiter-Glo; read-out: MIA-PaCa2 IC50
How it was run: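 Luminescent ATP read-out (CellTiter-Glo) after 5-day compound treatment of spheroids formed overnight from 200 MIA PaCa-2 cells/well; compounds in 3.16-fold series, 0.1% DMSO final. IC50 derived by four-parameter fit of percent inhibition, normalized to DMSO control and medium blank.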

[3] = tested on: A549 cells (KRAS G12S mutant); experiment: Cell proliferation inhibition experiment, 3D spheroid, CellTiter-Glo, A549; conditions: Homo sapiens, A549, 120 h, A549 (KRAS G12S mutant) 3D spheroid, 5 days with compound, CellTiter-Glo; read-out: A549 IC50
How it was run: as §1

| IC50 [1] | IC50 [2] | IC50 [3] | SMILES |
| --- | --- | --- | --- |
| 7.8 nM | 13 nM |  | C=CC(=O)N1CCN2C(=O)c3c(N4CC[C@@H]5C[C@@H]54)nc(-c4c(O)cccc4F)c(Cl)c3OC[C@H]2C1 (single isomer, unassigned) [Z39-2] |
| 15.4 nM |  |  | C=CC(=O)N1CCN2C(=O)c3c(N4C[C@H](O)[C@H]4C)nc(-c4c(O)cccc4F)c(Cl)c3OC[C@H]2C1 (single isomer, unassigned) [Z102-4] |
| 15 nM | 20 nM |  | C=CC(=O)N1CCN2C(=O)c3c(N4CCN(C5COC5)C[C@@H]4C)nc(-c4c(O)cccc4F)c(Cl)c3OC[C@H]2C1 (single isomer, unassigned) [Z239-1] |
| 2.5 nM | 3.7 nM | 10000 nM | C=CC(=O)N1CCN2C(=O)c3c(N4C[C@@H](CO)CC4(C)C)nc(-c4c(O)cccc4F)c(Cl)c3OC[C@H]2C1 (single isomer, unassigned) [Z240-1] |
| 1.9 nM | 3.3 nM | > 10000 nM | C=CC(=O)N1CCN2C(=O)c3c(N4C[C@H](CO)CC4(C)C)nc(-c4c(O)cccc4F)c(Cl)c3OC[C@H]2C1 (single isomer, unassigned) [Z240-2] |
| 1.4 nM | 4.3 nM | 9550 nM | C=CC(=O)N1CCN2C(=O)c3c(N4CC[C@H](OC)C4(C)C)nc(-c4c(O)cccc4F)c(Cl)c3OC[C@H]2C1 (single isomer, unassigned) [Z241a-1] |
| 0.7 nM | 1.5 nM | 3040 nM | C=CC(=O)N1CCN2C(=O)c3c(N4CC[C@@H](OC)C4(C)C)nc(-c4c(O)cccc4F)c(Cl)c3OC[C@H]2C1 (single isomer, unassigned) [Z241a-2] |
| 0.6 nM | 1.5 nM | 3100 nM | C=CC(=O)N1CCN2C(=O)c3c(N4C[C@@](C)(O)CC4(C)C)nc(-c4c(O)cccc4F)c(Cl)c3OC[C@H]2C1 (single isomer, unassigned) [Z243-1] |
| 11.1 nM | 22.2 nM | 3440 nM | C=CC(=O)N1CCN2C(=O)c3c(N4C[C@](C)(O)CC4(C)C)nc(-c4c(O)cccc4F)c(Cl)c3OC[C@H]2C1 (single isomer, unassigned) [Z243-2] |
| 1.9 nM | 8 nM | 2900 nM | C=CC(=O)N1CCN2C(=O)c3c(N4C[C@@H](OC)CC4(C)C)nc(-c4c(O)cccc4F)c(Cl)c3OC[C@H]2C1 (single isomer, unassigned) [Z244-1] |
| 0.5 nM | 1 nM | 2080 nM | C=CC(=O)N1CCN2C(=O)c3c(N4C[C@H](OC)CC4(C)C)nc(-c4c(O)cccc4F)c(Cl)c3OC[C@H]2C1 (single isomer, unassigned) [Z244-2] |
| 2.2 nM | 5 nM | 12100 nM | C=CC(=O)N1CCN2C(=O)c3c(N4C[C@@H](O)CC4(C)C)nc(-c4c(O)cccc4F)c(F)c3OC[C@H]2C1 (single isomer, unassigned) [Z256-1] |
| 3.4 nM | 11.6 nM | 9160 nM | C=CC(=O)N1CCN2C(=O)c3c(N4C[C@@H](OC)CC4(C)C)nc(-c4c(O)cccc4F)c(F)c3OC[C@H]2C1 (single isomer, unassigned) [Z256a-1] |
| 1.4 nM | 3.8 nM | 9270 nM | C=CC(=O)N1CCN2C(=O)c3c(N4C[C@H](OC)CC4(C)C)nc(-c4c(O)cccc4F)c(F)c3OC[C@H]2C1 (single isomer, unassigned) [Z256a-2] |
| 2.8 nM | 6.2 nM | 10200 nM | C=CC(=O)N1CCN2C(=O)c3c(N4C[C@@](C)(O)CC4(C)C)nc(-c4c(O)cccc4F)c(F)c3OC[C@H]2C1 (single isomer, unassigned) [Z256b-1] |
| 18.4 nM | 30.7 nM | 9220 nM | C=CC(=O)N1CCN2C(=O)c3c(N4Cc5cn(C)nc5[C@H]4C)nc(-c4c(O)cccc4F)c(Cl)c3OC[C@H]2C1 (single isomer, unassigned) [Z291-1S, trifluoroacetate] |

| IC50 [1] | IC50 [2] | IC50 [3] | SMILES |
| --- | --- | --- | --- |
| 0.4 nM | 1.1 nM | 3340 nM | C=CC(=O)N1CCN2C(=O)c3c(N4CC(N(C)CCOC)CC4(C)C)nc(-c4c(O)cccc4F)c(Cl)c3OCC2C1 (single isomer, unassigned) [Z296-1] |
| 2.4 nM | 8 nM | 3790 nM | C=CC(=O)N1CCN2C(=O)c3c(N4C[C@H](N(C)CCOC)CC4(C)C)nc(-c4c(O)cccc4F)c(Cl)c3OC[C@H]2C1 (single isomer, unassigned) [Z296-2] |
| 1 nM | 3 nM | 7000 nM | C=CC(=O)N1CCN2C(=O)c3c(N4C[C@H](N5CCOCC5)CC4(C)C)nc(-c4c(O)cccc4F)c(Cl)c3OC[C@H]2C1 (single isomer, unassigned) [Z297-1] |
| 1 nM | 3 nM | 8700 nM | C=CC(=O)N1CCN2C(=O)c3c(N4C[C@@H](N5CCOCC5)CC4(C)C)nc(-c4c(O)cccc4F)c(Cl)c3OC[C@H]2C1 (single isomer, unassigned) [Z297-2] |
| 16 nM | 17 nM |  | C=CC(=O)N1CCN2C(=O)c3c(N4CCO[C@](C)(COC)C4)nc(-c4c(O)cccc4F)c(Cl)c3OC[C@H]2C1 (single isomer, unassigned) [Z332-1] |
| 5 nM |  |  | C=CC(=O)N1CCN2C(=O)c3c(N4CC(O)CC4(C)C)nc(-c4c(O)cccc4F)c(C)c3OC[C@H]2C1 (single isomer, unassigned) [Z336-2] |
| 14.6 nM |  |  | C=CC(=O)N1CCN2C(=O)c3c(N4C[C@H](N(C)C)C[C@@H]4C)nc(-c4c(O)cccc4F)c(Cl)c3OC[C@H]2C1 [Z237-1, (6aR)-8-acryloyl-4-chloro-1-((2S,4R)-4-(dimethylamino)-2-methylpyrrolidin-1-yl)-3-(2-fluoro-6-hydroxyphenyl)-6,6a,7,8,9,10-hexahydro-12H-pyrazino[2,1-c]pyrido[3,4-f][1,4]oxazepin-12-one] |
| 2.4 nM |  |  | C=CC(=O)N1CCN2C(=O)c3c(N4CC(CO)CC4(C)C)nc(-c4c(O)cccc4F)c(Cl)c3OC[C@H]2C1 (stereo partly drawn) [Z240, (6aR)-8-acryloyl-4-chloro-3-(2-fluoro-6-hydroxyphenyl)-1-(4-(hydroxymethyl)-2,2-dimethylpyrrolidin-1-yl)-6,6a,7,8,9,10-hexahydro-12H-pyrazino[2,1-c]pyrido[3,4-f][1,4]oxazepin-12-one] |
| 2.6 nM | 4.9 nM |  | C=CC(=O)N1CCN2C(=O)c3c(N4CCC(O)C4(C)C)nc(-c4c(O)cccc4F)c(Cl)c3OC[C@H]2C1 (stereo partly drawn) [Z241, (6aR)-8-acryloyl-1-(3-hydroxy-2,2-dimethylpyrrolidin-1-yl)-4-chloro-3-(2-fluoro-6-hydroxyphenyl)-6,6a,7,8,9,10-hexahydro-12H-pyrazino[2,1-c]pyrido[3,4-f][1,4]oxazepin-12-one] |
| 2.2 nM | 4.2 nM |  | C=CC(=O)N1CCN2C(=O)c3c(N4CC(C)(O)CC4(C)C)nc(-c4c(O)cccc4F)c(Cl)c3OC[C@H]2C1 (stereo partly drawn) [Z243, (6aR)-8-acryloyl-4-chloro-3-(2-fluoro-6-hydroxyphenyl)-1-(4-hydroxy-2,2,4-trimethylpyrrolidin-1-yl)-6,6a,7,8,9,10-hexahydro-12H-pyrazino[2,1-c]pyrido[3,4-f][1,4]oxazepin-12-one] |
| 2.9 nM | 7 nM |  | C=CC(=O)N1CCN2C(=O)c3c(N4CC(OC)CC4(C)C)nc(-c4c(O)cccc4F)c(Cl)c3OC[C@H]2C1 (stereo partly drawn) [Z244, (6aR)-8-acryloyl-4-chloro-3-(2-fluoro-6-hydroxyphenyl)-1-(4-methoxy-2,2-dimethylpyrrolidin-1-yl)-12-oxo-6,6a,7,8,9,10-hexahydro-12H-pyrazino[2,1-c]pyrido[3,4-f][1,4]oxazepin-12-one] |
| 10.6 nM | 26 nM |  | C=CC(=O)N1CCN2C(=O)c3c(N4Cc5cn(C)nc5C4(C)C)nc(-c4c(O)cccc4F)c(Cl)c3OC[C@H]2C1 [Z310, (6aR)-8-acryloyl-1-(2,6,6-trimethylpyrrolo[3,4-c]pyrazol-5(2H,4H,6H)-yl)-4-chloro-3-(2-fluoro-6-hydroxyphenyl)-6,6a,7,8,9,10-hexahydro-12H-pyrazino[2,1-c]pyrido[3,4-f][1,4]oxazepin-12-one] |
| 13.5 nM |  |  | C=CC(=O)N1CCN2C(=O)c3c(N4CCN(C5CC5)C[C@@H]4C)nc(-c4c(O)cccc4F)c(Cl)c3OC[C@H]2C1 [Z312-1, (6aR)-8-acryloyl-4-chloro-1-((S)-4-cyclopropyl-2-methylpiperazin-1-yl)-3-(2-fluoro-6-hydroxyphenyl)-6,6a,7,8,9,10-hexahydro-12H-pyrazino[2,1-c]pyrido[3,4-f][1,4]oxazepin-12-one] |
| 2.3 nM |  | > 30000 nM | C=CC(=O)N1CCN2C(=O)c3c(N4CC(=O)N(CC)C[C@@H]4C)nc(-c4c(O)cccc4F)c(Cl)c3OC[C@H]2C1 [Z319-1, (6aR)-8-acryloyl-4-chloro-1-((S)-4-ethyl-2-methyl-5-oxopiperazin-1-yl)-3-(2-fluoro-6-hydroxyphenyl)-6,6a,7,8,9,10-hexahydro-12H-pyrazino[2,1-c]pyrido[3,4-f][1,4]oxazepin-12-one] |
| 4.5 nM | 7 nM |  | C=CC(=O)N1CCN2C(=O)c3c(N4CCN(CCOC)C(C)(C)C4)nc(-c4c(O)cccc4F)c(Cl)c3OC[C@H]2C1 [Z321, (6aR)-8-acryloyl-4-chloro-3-(2-fluoro-6-hydroxyphenyl)-1-(4-(2-methoxyethyl)-3,3-dimethylpiperazin-1-yl)-6,6a,7,8,9,10-hexahydro-12H-pyrazino[2,1-c]pyrido[3,4-f][1,4]oxazepin-12-one] |
